Publication PMC5218480 (PLoS ONE, 2017)

Test system: MV-4-11 cells
Assay: Gene expression microarray analysis (Affymetrix PrimeView) and GSEA
Assay type: cell-based, human
Parameters: RFU PODN (11730768_x_at) / Fold change /veh PODN (11730768_x_at) / RFU LINC00158 (11744669_a_at) / Fold change /veh LINC00158 (11744669_a_at) / RFU DUSP10 (11751237_a_at) / Fold change /veh DUSP10 (11751237_a_at) / RFU ID3 (11757404_x_at) / Fold change /veh ID3 (11757404_x_at) / RFU PLEKHG5 (11737974_s_at) / Fold change /veh PLEKHG5 (11737974_s_at) / RFU LRRC4B (11730491_at) / Fold change /veh LRRC4B (11730491_at) / RFU GIMAP4 (11747438_a_at) / Fold change /veh GIMAP4 (11747438_a_at) / RFU KRT8 (11758183_x_at) / Fold change /veh KRT8 (11758183_x_at) / RFU CNN1 (11734310_a_at) / Fold change /veh CNN1 (11734310_a_at) / RFU VPS37D (11726825_at) / Fold change /veh VPS37D (11726825_at) / RFU C10orf10 (11716522_x_at) / Fold change /veh C10orf10 (11716522_x_at) / RFU KIR2DL2 /// KIR2DL4 /// KIR2DL5A /// KIR2DL5B /// KIR2DS1 /// KIR2DS2 /// KIR2DS3 /// KIR2DS4 /// KIR3DL3 /// KIR3DL3 /// KIR3DS1 (11738374_at) / Fold change /veh KIR2DL2 /// KIR2DL4 /// KIR2DL5A /// KIR2DL5B /// KIR2DS1 /// KIR2DS2 /// KIR2DS3 /// KIR2DS4 /// KIR3DL3 /// KIR3DL3 /// KIR3DS1 (11738374_at) / RFU C1QL1 (11718748_at) / Fold change /veh C1QL1 (11718748_at) / RFU TMPRSS4 (11747572_a_at) / Fold change /veh TMPRSS4 (11747572_a_at) / RFU HAMP (11756126_x_at) / Fold change /veh HAMP (11756126_x_at) / RFU RNFT2 (11725882_a_at) / Fold change /veh RNFT2 (11725882_a_at) / RFU NR4A2 (11747474_a_at) / Fold change /veh NR4A2 (11747474_a_at) / RFU ABCC12 (11746883_a_at) / Fold change /veh ABCC12 (11746883_a_at) / RFU TMEM136 (11760407_x_at) / Fold change /veh TMEM136 (11760407_x_at) / RFU CLDN22 /// WWC2 (11732394_at) / Fold change /veh CLDN22 /// WWC2 (11732394_at) / RFU HLA-DPB1 (11760878_x_at) / Fold change /veh HLA-DPB1 (11760878_x_at) / RFU SPINT1 (11716480_a_at) / Fold change /veh SPINT1 (11716480_a_at) / RFU GAP43 (11754022_s_at) / Fold change /veh GAP43 (11754022_s_at) / RFU A4GNT (11735810_at) / Fold change /veh A4GNT (11735810_at) / RFU PRB3 (11715151_x_at) / Fold change /veh PRB3 (11715151_x_at) / RFU TUBB4B (11761932_at) / Fold change /veh TUBB4B (11761932_at) / RFU CAPN14 (11732068_a_at) / Fold change /veh CAPN14 (11732068_a_at) / RFU TMCC2 (11721928_a_at) / Fold change /veh TMCC2 (11721928_a_at) / RFU IRGQ (11745062_a_at) / Fold change /veh IRGQ (11745062_a_at) / RFU FAM174B (11720279_a_at) / Fold change /veh FAM174B (11720279_a_at) / RFU TMPRSS4 (11748680_a_at) / Fold change /veh TMPRSS4 (11748680_a_at) / RFU FAM212B (11763350_a_at) / Fold change /veh FAM212B (11763350_a_at) / RFU PLEKHG5 (11743358_a_at) / Fold change /veh PLEKHG5 (11743358_a_at) / RFU ZSCAN30 (11745921_a_at) / Fold change /veh ZSCAN30 (11745921_a_at) / RFU CMKLR1 (11741424_a_at) / Fold change /veh CMKLR1 (11741424_a_at) / RFU LOC101060620 /// MAPK8IP1 (11723275_at) / Fold change /veh LOC101060620 /// MAPK8IP1 (11723275_at) / RFU SPTSSB (11747773_x_at) / Fold change /veh SPTSSB (11747773_x_at) / RFU PRSS12 (11739890_at) / Fold change /veh PRSS12 (11739890_at) / RFU BIN1 (11741810_x_at) / Fold change /veh BIN1 (11741810_x_at) / RFU WNT11 (11732464_a_at) / Fold change /veh WNT11 (11732464_a_at) / RFU C10orf10 (11716521_a_at) / Fold change /veh C10orf10 (11716521_a_at) / RFU C5orf56 (11738089_at) / Fold change /veh C5orf56 (11738089_at) / RFU CYB561 (11721691_x_at) / Fold change /veh CYB561 (11721691_x_at) / RFU ANKRD19P (11752326_a_at) / Fold change /veh ANKRD19P (11752326_a_at) / RFU OR2T12 /// OR2T33 /// OR2T8 (11738714_s_at) / Fold change /veh OR2T12 /// OR2T33 /// OR2T8 (11738714_s_at) / RFU VCAN (11748164_a_at) / Fold change /veh VCAN (11748164_a_at) / RFU JSRP1 (11732532_at) / Fold change /veh JSRP1 (11732532_at) / RFU KRTAP10-11 (11738290_x_at) / Fold change /veh KRTAP10-11 (11738290_x_at) / RFU MYO3A (11730013_a_at) / Fold change /veh MYO3A (11730013_a_at) / RFU EBF3 (11725865_a_at) / Fold change /veh EBF3 (11725865_a_at) / RFU CAMK2N1 (11719241_x_at) / Fold change /veh CAMK2N1 (11719241_x_at) / RFU C5orf56 (11738088_a_at) / Fold change /veh C5orf56 (11738088_a_at) / RFU OLFML3 (11715873_a_at) / Fold change /veh OLFML3 (11715873_a_at) / RFU LOC100653217 /// NTM (11731650_a_at) / Fold change /veh LOC100653217 /// NTM (11731650_a_at) / RFU MAPK11 (11762145_a_at) / Fold change /veh MAPK11 (11762145_a_at) / RFU FIZ1 (11724087_x_at) / Fold change /veh FIZ1 (11724087_x_at) / RFU OASL (11726364_x_at) / Fold change /veh OASL (11726364_x_at) / RFU SOX15 (11748057_x_at) / Fold change /veh SOX15 (11748057_x_at) / RFU CD79A (11719716_a_at) / Fold change /veh CD79A (11719716_a_at) / RFU HIST1H1D (11736915_at) / Fold change /veh HIST1H1D (11736915_at) / RFU CASKIN2 (11723855_a_at) / Fold change /veh CASKIN2 (11723855_a_at) / RFU LOC730098 (11760151_x_at) / Fold change /veh LOC730098 (11760151_x_at) / RFU OR4N2 (11742367_at) / Fold change /veh OR4N2 (11742367_at) / RFU PRRT2 (11749266_a_at) / Fold change /veh PRRT2 (11749266_a_at) / RFU SNX32 (11753110_a_at) / Fold change /veh SNX32 (11753110_a_at) / RFU CDHR5 (11726645_a_at) / Fold change /veh CDHR5 (11726645_a_at) / RFU RCAN1 (11760418_a_at) / Fold change /veh RCAN1 (11760418_a_at) / RFU FAM167A (11723789_a_at) / Fold change /veh FAM167A (11723789_a_at) / RFU FAM26E (11764081_at) / Fold change /veh FAM26E (11764081_at) / RFU ISYNA1 (11749810_s_at) / Fold change /veh ISYNA1 (11749810_s_at) / RFU ACY1 (11761880_at) / Fold change /veh ACY1 (11761880_at) / RFU 11764098_at / Fold change /veh 11764098_at / RFU SAMD14 (11745864_x_at) / Fold change /veh SAMD14 (11745864_x_at) / RFU NPB (11741838_a_at) / Fold change /veh NPB (11741838_a_at) / RFU TMPRSS6 (11731388_a_at) / Fold change /veh TMPRSS6 (11731388_a_at) / RFU KRTAP10-2 (11738614_at) / Fold change /veh KRTAP10-2 (11738614_at) / RFU ARHGAP8 /// PRR5-ARHGAP8 (11727945_x_at) / Fold change /veh ARHGAP8 /// PRR5-ARHGAP8 (11727945_x_at) / RFU KRTAP5-7 /// NADSYN1 (11734609_at) / Fold change /veh KRTAP5-7 /// NADSYN1 (11734609_at) / RFU RASL12 (11751679_a_at) / Fold change /veh RASL12 (11751679_a_at) / RFU CDKN2B (11736163_a_at) / Fold change /veh CDKN2B (11736163_a_at) / RFU PRF1 (11729649_at) / Fold change /veh PRF1 (11729649_at) / RFU, ZNF638 /// ZNF638-IT1 / Fold change vs veh, ZNF638 /// ZNF638-IT1 / RFU, PANK3 / Fold change vs veh, PANK3 / RFU, SH3YL1 / Fold change vs veh, SH3YL1 / RFU, ZEB2 / Fold change vs veh, ZEB2 / RFU, NRIP1 / Fold change vs veh, NRIP1 / RFU, PTTG1IP / Fold change vs veh, PTTG1IP / RFU, CAPN2 / Fold change vs veh, CAPN2 / RFU, MED14 / Fold change vs veh, MED14 / RFU, SNORA58 / Fold change vs veh, SNORA58 / RFU, C1orf63 / Fold change vs veh, C1orf63 / RFU, LRRFIP1 / Fold change vs veh, LRRFIP1 / RFU, NDUFAF7 / Fold change vs veh, NDUFAF7 / RFU, SLC12A2 / Fold change vs veh, SLC12A2 / RFU, IBTK / Fold change vs veh, IBTK / RFU, ESF1 / Fold change vs veh, ESF1 / Fold change vs veh, TMEM50B / RFU, TAOK1 / Fold change vs veh, TAOK1 / RFU, ACBD3 / Fold change vs veh, ACBD3 / RFU, TMA16 / Fold change vs veh, TMA16 / RFU, RWDD3 / Fold change vs veh, RWDD3 / RFU, BCAT1 / Fold change vs veh, BCAT1 / RFU, EDEM3 / Fold change vs veh, EDEM3 / RFU, TMEM33 / Fold change vs veh, TMEM33 / RFU, WDR75 / Fold change vs veh, WDR75 / RFU, AHCTF1 / Fold change vs veh, AHCTF1 / RFU, TFRC / Fold change vs veh, TFRC / RFU, ZDHHC17 / Fold change vs veh, ZDHHC17 / RFU, NOM1 / Fold change vs veh, NOM1 / RFU, ARL8B / Fold change vs veh, ARL8B / RFU, ZBTB11 / Fold change vs veh, ZBTB11 / RFU, TAMM41 / Fold change vs veh, TAMM41 / RFU, KIAA1704 /// LOC100996395 / Fold change vs veh, KIAA1704 /// LOC100996395 / RFU, ING1 / Fold change vs veh, ING1 / RFU, TRMT61B / Fold change vs veh, TRMT61B / RFU, FUBP3 / Fold change vs veh, FUBP3 / RFU, TP53 / Fold change vs veh, TP53 / RFU, TNKS2 / Fold change vs veh, TNKS2 / RFU, ZFP14 / Fold change vs veh, ZFP14 / RFU, ACTR2 / Fold change vs veh, ACTR2 / RFU, PPP3R1 / Fold change vs veh, PPP3R1 / RFU, PIK3R1 / Fold change vs veh, PIK3R1 / RFU, HNRNPA1 / Fold change vs veh, HNRNPA1 / RFU, RNF170 / Fold change vs veh, RNF170 / RFU, ZNF28 / Fold change vs veh, ZNF28 / RFU, RNGTT / Fold change vs veh, RNGTT / RFU, OGT / Fold change vs veh, OGT / RFU, BRD1 / Fold change vs veh, BRD1 / RFU, MARS / Fold change vs veh, MARS / RFU, ZNF655 / Fold change vs veh, ZNF655 / RFU, FAHD1 / Fold change vs veh, FAHD1 / RFU, BDP1 / Fold change vs veh, BDP1 / RFU, LRRCC1 / Fold change vs veh, LRRCC1 / RFU, ARID1A / Fold change vs veh, ARID1A / RFU, ZNF146 / Fold change vs veh, ZNF146 / RFU, ZNF330 / Fold change vs veh, ZNF330 / RFU, GPN3 / Fold change vs veh, GPN3 / RFU, C9orf123 / Fold change vs veh, C9orf123 / RFU, N4BP2L2 / Fold change vs veh, N4BP2L2 / RFU, ARFIP1 / Fold change vs veh, ARFIP1 / RFU, FAM179B / Fold change vs veh, FAM179B / RFU, BCL10 / Fold change vs veh, BCL10 / RFU, UHRF1BP1L / Fold change vs veh, UHRF1BP1L / RFU, BET1 / Fold change vs veh, BET1 / RFU, CNOT2 / Fold change vs veh, CNOT2 / RFU, ZNF268 / Fold change vs veh, ZNF268 / Fold change vs veh, ZNF507 / RFU, DGCR2 / Fold change vs veh, DGCR2 / RFU, WDSUB1 / Fold change vs veh, WDSUB1 / Fold change vs veh, HSP90B1 /// MIR3652 / RFU, ADSS / Fold change vs veh, ADSS / RFU, GK / Fold change vs veh, GK / RFU, ZNF148 / Fold change vs veh, ZNF148 / RFU, TAF9 / Fold change vs veh, TAF9 / RFU, SLC1A5 / Fold change vs veh, SLC1A5 / RFU, SLMO2 / Fold change vs veh, SLMO2 / RFU, ABCC4 / Fold change vs veh, ABCC4 / RFU, LOC101060439 /// RAP1B / Fold change vs veh, LOC101060439 /// RAP1B / RFU, RFX7 / Fold change vs veh, RFX7 / RFU, GTPBP10 / Fold change vs veh, GTPBP10 / RFU, CNEP1R1 / Fold change vs veh, CNEP1R1 / RFU, BIVM-ERCC5 /// ERCC5 / Fold change vs veh, BIVM-ERCC5 /// ERCC5 / RFU, ILF3 / Fold change vs veh, ILF3 / RFU 11762660_at / Fold change /veh 11762660_at / RFU VCAN (11757783_s_at) / Fold change /veh VCAN (11757783_s_at) / RFU DDX43 (11728927_at) / Fold change /veh DDX43 (11728927_at) / RFU KRT8 (11758188_x_at) / Fold change /veh KRT8 (11758188_x_at) / RFU NKD1 (11759106_at) / Fold change /veh NKD1 (11759106_at) / RFU SRD5A1 (11742802_a_at) / Fold change /veh SRD5A1 (11742802_a_at) / RFU TPSAB1 /// TPSB2 (11721975_s_at) / Fold change /veh TPSAB1 /// TPSB2 (11721975_s_at) / RFU GSTM3 (11746129_a_at) / Fold change /veh GSTM3 (11746129_a_at) / RFU IL23R (11737362_x_at) / Fold change /veh IL23R (11737362_x_at) / RFU TMEM51 (11727254_a_at) / Fold change /veh TMEM51 (11727254_a_at) / RFU PIWIL2 (11732686_x_at) / Fold change /veh PIWIL2 (11732686_x_at) / RFU ORM1 (11744905_x_at) / Fold change /veh ORM1 (11744905_x_at) / RFU CCDC152 (11743942_at) / Fold change /veh CCDC152 (11743942_at) / RFU ECM1 (11717891_a_at) / Fold change /veh ECM1 (11717891_a_at) / RFU IL23R (11748794_a_at) / Fold change /veh IL23R (11748794_a_at) / RFU TNFAIP8L3 (11732012_x_at) / Fold change /veh TNFAIP8L3 (11732012_x_at) / RFU MBOAT4 (11741988_at) / Fold change /veh MBOAT4 (11741988_at) / RFU 11764193_at / Fold change /veh 11764193_at / RFU TMEM53 (11763286_at) / Fold change /veh TMEM53 (11763286_at) / RFU MAGEB2 (11727129_at) / Fold change /veh MAGEB2 (11727129_at) / RFU TMEM200A (11744735_a_at) / Fold change /veh TMEM200A (11744735_a_at) / RFU CCDC152 (11751479_a_at) / Fold change /veh CCDC152 (11751479_a_at) / RFU FAM211A (11726209_a_at) / Fold change /veh FAM211A (11726209_a_at) / RFU RGS16 (11746705_a_at) / Fold change /veh RGS16 (11746705_a_at) / RFU VCAN (11755009_s_at) / Fold change /veh VCAN (11755009_s_at) / RFU RHOB (11743442_s_at) / Fold change /veh RHOB (11743442_s_at) / RFU RGS16 (11720943_a_at) / Fold change /veh RGS16 (11720943_a_at) / RFU RGS16 (11720944_at) / Fold change /veh RGS16 (11720944_at) / RFU, VPS4B / Fold change vs veh, VPS4B / RFU, CREB1 / Fold change vs veh, CREB1 / RFU, DNAJC13 / Fold change vs veh, DNAJC13 / RFU, GNAQ / Fold change vs veh, GNAQ / RFU, CDK5R1 / Fold change vs veh, CDK5R1 / RFU, ZRANB3 / Fold change vs veh, ZRANB3 / RFU, CUL4A / Fold change vs veh, CUL4A / RFU, CCNY / Fold change vs veh, CCNY / RFU, UFL1 / Fold change vs veh, UFL1 / RFU, COG3 / Fold change vs veh, COG3 / RFU, DIAPH2 / Fold change vs veh, DIAPH2 / RFU, SKA2 / Fold change vs veh, SKA2 / RFU, AFF3 / Fold change vs veh, AFF3 / RFU, LMF1 / Fold change vs veh, LMF1 / RFU, IPO11 / Fold change vs veh, IPO11 / RFU, DFFB / Fold change vs veh, DFFB / RFU, FOXP1 / Fold change vs veh, FOXP1 / RFU, CARD8 / Fold change vs veh, CARD8 / RFU, STRN3 / Fold change vs veh, STRN3 / RFU, ADK / Fold change vs veh, ADK / RFU, RASSF2 / Fold change vs veh, RASSF2 / RFU, WIPF1 / Fold change vs veh, WIPF1 / RFU, LARP1B / Fold change vs veh, LARP1B / RFU, RASA1 / Fold change vs veh, RASA1 / RFU, RB1 / Fold change vs veh, RB1 / RFU, PPFIA1 / Fold change vs veh, PPFIA1 / RFU, MAT2A / Fold change vs veh, MAT2A / RFU, CCT5 / Fold change vs veh, CCT5 / RFU, WDR92 / Fold change vs veh, WDR92 / RFU, CUX1 / Fold change vs veh, CUX1 / RFU, TTC7A / Fold change vs veh, TTC7A / RFU, TMEM135 / Fold change vs veh, TMEM135 / RFU, DEPTOR / Fold change vs veh, DEPTOR / RFU, CPM / Fold change vs veh, CPM / RFU, DNAJB6 / Fold change vs veh, DNAJB6 / RFU, CACNA2D3 / Fold change vs veh, CACNA2D3 / RFU, DTX4 / Fold change vs veh, DTX4 / RFU, TFCP2 / Fold change vs veh, TFCP2 / RFU, GMCL1 /// GMCL1P1 / Fold change vs veh, GMCL1 /// GMCL1P1 / RFU, AEBP2 / Fold change vs veh, AEBP2 / RFU, SNHG1 /// SNORD22 /// SNORD25 /// SNORD26 /// SNORD27 /// SNORD28 /// SNORD29 /// SNORD31 / Fold change vs veh, SNHG1 /// SNORD22 /// SNORD25 /// SNORD26 /// SNORD27 /// SNORD28 /// SNORD29 /// SNORD31 / Fold change (Aza/veh), C12orf56 (ProbeSet 11735607_a_at) / Fold change (ACY-1035/veh), C12orf56 (ProbeSet 11735607_a_at) / Fold change (Aza/veh), FGFR1OP (ProbeSet 11751329_s_at) / Fold change (ACY-1035/veh), FGFR1OP (ProbeSet 11751329_s_at) / Fold change (Aza/veh), VPS36 (ProbeSet 11739960_a_at) / Fold change (ACY-1035/veh), VPS36 (ProbeSet 11739960_a_at) / RFU SYPL1 (11715823_x_at) / Fold change /veh SYPL1 (11715823_x_at) / RFU IGFBP7 (11715501_s_at) / Fold change /veh IGFBP7 (11715501_s_at) / RFU REEP3 (11722064_at) / Fold change /veh REEP3 (11722064_at) / RFU IGLL1 (11728026_x_at) / Fold change /veh IGLL1 (11728026_x_at): dose or concentration left out as unconfirmed
Conditions: MV-4-11 cells, 48 hours

Question: `Nc1ccc(-c2cccs2)cc1NC(=O)c1ccc2c(c1)cc(C1CC1)n2CCN1CCOCC1` [ACY-1035] was tested. Which “RFU KRTAP10-2 (11738614_at)” value did it give?
Answer: 11.58 RFU
